In patent publication US20230096766A1, “AMINO ACID HAVING FUNCTIONAL GROUP CAPABLE OF INTERMOLECULAR HYDROGEN BONDING, PEPTIDE COMPOUND CONTAINING SAME AND METHOD FOR PRODUCTION THEREOF” (Chugai Seiyaku Kabushiki Kaisha, priority 2018, published 2023):
*1 amine or outer side, *2 acyl side, *3 side chain or, on linkers, in order; H or OH if unused. Where a SMILES comes first, the peptide text is derived from it. Bridges are numbered along the chain shown (N, C = ends). [ ]: non-standard residue; d: D form. The star is where a group is joined. ξ: configuration not given here. NMeAbu(3,3-F2-piperidino) = CN[C@@H](CCN1CCCC(F)(F)C1)C(=O)O; dhPhe(4-CONHMe,3-OMe) = CNC(=O)c1ccc(CC[C@@H](N)C(=O)O)cc1OC; hPhe(3-OMe,4-CONHMe) = CNC(=O)c1ccc(CC[C@H](N)C(=O)O)cc1OC; Phe(3-CONHMe,4-OMe) = CNC(=O)c1cc(C[C@H](N)C(=O)O)ccc1OC; X10 = CN([C@@H](CCN1CCC(F)(F)CC1)C(=O)[*:2])[*:1]; NMeAla(4-thiazolyl) = CN[C@@H](Cc1cscn1)C(=O)O; NMePhe(3-Cl) = CN[C@@H](Cc1cccc(Cl)c1)C(=O)O; ξGln(SO2Me) = CS(=O)(=O)NC(=O)CCC(N)C(=O)O; NMehPhe = CN[C@@H](CCc1ccccc1)C(=O)O; Propyl(2,2-Me2,3-OH) = CC(C)(CO)C*; NMeF = CN[C@@H](Cc1ccccc1)C(=O)O; NMeGABA = CN(CCCC(=O)[*:2])[*:1]; Butyl(3-Me,3-OH) = CC(C)(O)CC*; CH2CONHtBu = CC(C)(C)NC(=O)C*; NMeL = CN[C@@H](CC(C)C)C(=O)O; Butyl(3R-OH) = C[C@@H](O)CC*; NMeV = CN[C@H](C(=O)O)C(C)C; NMeAbu = CC[C@H](NC)C(=O)O; NMeA = CN[C@@H](C)C(=O)O; Piperidide = C1CCN(*)CC1; CH2CMe2OH = CC(C)(O)C*; X8 = C1COC[C@@H](C*)N1; Me2NCH2CH2 = CN(C)CC*; NBuGly = CCCCNCC(=O)O; NPrGly = CCCNCC(=O)O; Ethyl(2-OH) = OCC*; ξS = NC(CO)C(=O)O; Sar = CNCC(=O)O; tBu = CC(C)(C)*

Assay: in vitro
Conditions: human, Caco-2, Caco-2

Structure (SMILES) | Papp [×10⁻⁶ cm/s]
CCCCN1CC(=O)N(C)[C@@H](C(C)C)C(=O)N[C@H](C(=O)N2CCCCC2)CC(=O)N(C)[C@@H](CC)C(=O)NC(CCC(=O)NS(C)(=O)=O)C(=O)N(C)[C@@H](CC(C)C)C(=O)N(C)[C@@H](Cc2cccc(Cl)c2)C(=O)N[C@@H](CC(C)C)C(=O)N(C)[C@@H](Cc2ccccc2)C(=O)N(C)[C@@H](CC(C)C)C(=O)N[C@@H]([C@@H](C)O)C1=O (stereo partly drawn) [pd63] ([NMeAbu][ξGln(SO2Me)][NMeL][NMePhe(3-Cl)]L[NMeF][NMeL]T[NBuGly][NMeV]D-Piperidide; lactam N-11) | < 0.1
CC(C)C[C@@H]1NC(=O)[C@H](C)N(C)C(=O)C[C@@H](C(=O)N2CCCCC2)NC(=O)[C@H](C(C)C)N(C)C(=O)CN(C)C(=O)[C@H]([C@@H](C)O)NC(=O)[C@H](CCN2CCCC(F)(F)C2)N(C)C(=O)[C@H](Cc2ccccc2)N(C)C(=O)[C@H](CC(C)C)NC(=O)[C@H](Cc2ccccc2)N(C)C(=O)[C@H](CC(C)C)N(C)C1=O [pd391] ([NMeA]L[NMeL][NMeF]L[NMeF][NMeAbu(3,3-F2-piperidino)]T[Sar][NMeV]D-Piperidide; lactam N-11) | 2.4
CCCCN1CC(=O)N(C)[C@@H](CCN2CCCC(F)(F)C2)C(=O)N[C@H](C(=O)N2CCCCC2)CC(=O)N(C)[C@@H](C)C(=O)N[C@@H](CC(C)C)C(=O)N(C)[C@@H](CC(C)C)C(=O)N(C)[C@@H](Cc2ccccc2)C(=O)N[C@@H](CC(C)C)C(=O)N(C)[C@@H](Cc2ccccc2)C(=O)N(C)[C@@H](C)C(=O)N[C@@H]([C@@H](C)O)C1=O [pd392] ([NMeA]L[NMeL][NMeF]L[NMeF][NMeA]T[NBuGly][NMeAbu(3,3-F2-piperidino)]D-Piperidide; lactam N-11) | 3.5
CCCCN1CC(=O)N(C)[C@@H](CC(C)C)C(=O)N[C@@H](CC(C)C)C(=O)N(C)[C@@H](Cc2ccccc2)C(=O)N(C)[C@@H](C)C(=O)N[C@H](C(=O)N2CCCCC2)CC(=O)N[C@H](C(C)C)C(=O)N(C)[C@@H](Cc2ccccc2)C(=O)N[C@@H](CC(C)C)C(=O)N(C)[C@@H](CCN2CCC(F)(F)CC2)C(=O)N[C@@H]([C@@H](C)O)C1=O [pd394] ([dV][NMeF]L[X10]T[NBuGly][NMeL]L[NMeF][NMeA]D-Piperidide; lactam N-11) | 1.8
CCCN1CC(=O)N(C)[C@@H](CC(C)C)C(=O)N[C@@H](COC(C)(C)C)C(=O)N(C)[C@@H](Cc2ccccc2)C(=O)N(C)[C@@H](C(C)C)C(=O)N[C@H](C(=O)N2CCCCC2)CC(=O)N[C@H](C(C)C)C(=O)N(C)[C@@H](Cc2ccccc2)C(=O)N[C@@H](COCCN(C)C)C(=O)N(C)[C@@H](CC(C)C)C(=O)N[C@@H]([C@@H](C)O)C1=O [pd50] ([dV][NMeF]S(Me2NCH2CH2)[NMeL]T[NPrGly][NMeL]S(tBu)[NMeF][NMeV]D-Piperidide; lactam N-11) | 0.15

Same assay, conditions: human, Caco-2, Caco-2 (cm/sec)

Structure (SMILES) | Papp [×10⁻⁶ cm/s]
CCCN1CC(=O)N(C)[C@@H](Cc2cccc(Cl)c2)C(=O)N(C)[C@@H](CC(C)C)C(=O)N[C@@H](COCCO)C(=O)N(C)[C@@H](CC(C)C)C(=O)N[C@H](C(=O)N2CCCCC2)CC(=O)N(C)CC(=O)N(C)[C@@H](CCc2ccccc2)C(=O)N[C@@H]([C@@H](C)CC)C(=O)N(C)[C@@H](CC(C)C)C(=O)N[C@@H]([C@@H](C)O)C1=O [Compound A08] ([Sar][NMehPhe]I[NMeL]T[NPrGly][NMePhe(3-Cl)][NMeL]S(Ethyl(2-OH))[NMeL]D-Piperidide; lactam N-11) | 0.32
CCCCN1CC(=O)N(C)[C@@H](CC(C)C)C(=O)N[C@@H](COC(C)(C)C)C(=O)N(C)[C@@H](Cc2ccccc2)C(=O)N(C)[C@@H](CC(C)C)C(=O)N[C@H](C(=O)N2CCCCC2)CC(=O)N[C@H](C(C)C)C(=O)N(C)[C@@H](C(C)C)C(=O)N[C@@H](Cc2ccc(OC)c(C(=O)NC)c2)C(=O)N(C)[C@@H](CC(C)C)C(=O)N[C@@H]([C@@H](C)O)C1=O [AP35] ([dV][NMeV][Phe(3-CONHMe,4-OMe)][NMeL]T[NBuGly][NMeL]S(tBu)[NMeF][NMeL]D-Piperidide; lactam N-11) | 2
CCCCN1CC(=O)N(C)[C@@H](Cc2ccccc2)C(=O)N(C)[C@@H](CC(C)C)C(=O)N[C@@H](C(C)C)C(=O)N(C)[C@@H](CC(C)C)C(=O)N[C@H](C(=O)N2CCCCC2)CC(=O)N(C)CC(=O)N(C)[C@@H](CC(C)C)C(=O)N[C@@H](COC[C@@H]2COCCN2)C(=O)N(C)[C@@H](CC(C)C)C(=O)N[C@@H]([C@@H](C)O)C1=O [AP244] ([Sar][NMeL]S(X8)[NMeL]T[NBuGly][NMeF][NMeL]V[NMeL]D-Piperidide; lactam N-11) | 0.46
CC[C@H](C)[C@@H]1NC(=O)[C@H](CC(C)C)N(C)C(=O)CCCN(C)C(=O)C[C@@H](C(=O)N2CCCCC2)NC(=O)[C@H](CC(C)C)N(C)C(=O)[C@H](CC(C)C)N(C)C(=O)[C@H]([C@@H](C)O)NC(=O)[C@H](CC(C)C)N(C)C(=O)[C@H](COC[C@@H]2COCCN2)NC(=O)[C@H](CC(C)C)N(C)C(=O)[C@H](Cc2ccccc2)N(C)C1=O [AP241] ([NMeGABA][NMeL]I[NMeF][NMeL]S(X8)[NMeL]T[NMeL][NMeL]D-Piperidide; lactam N-11) | 0.05
CC[C@H]1C(=O)N[C@@H](CC(C)C)C(=O)N(C)[C@@H](CC(C)C)C(=O)N(C)[C@@H](Cc2ccccc2)C(=O)NC(COCC(C)(C)CO)C(=O)N(C)[C@@H](Cc2ccccc2)C(=O)N(C)[C@@H](CC(C)C)C(=O)N[C@@H]([C@@H](C)O)C(=O)N(C)CC(=O)N(C)[C@@H](CC(C)C)C(=O)N[C@H](C(=O)N2CCCCC2)CC(=O)N1C (stereo partly drawn) [AP122] ([NMeAbu]L[NMeL][NMeF][ξS](Propyl(2,2-Me2,3-OH))[NMeF][NMeL]T[Sar][NMeL]D-Piperidide; lactam N-11) | 2.9
CNC(=O)c1ccc(CC[C@@H]2NC(=O)[C@H](CC(C)C)N(C)C(=O)CN(C)C(=O)[C@H]([C@@H](C)O)NC(=O)[C@H](CC(C)C)N(C)C(=O)[C@H](CC(C)C)NC(=O)[C@H](Cc3ccccc3)N(C)C(=O)[C@@H](C(C)C)NC(=O)C[C@@H](C(=O)N3CCCCC3)NC(=O)[C@H](CC(C)C)N(C)C(=O)[C@H](CC(C)C)N(C)C2=O)cc1OC [AP200] ([dV][NMeF]L[NMeL]T[Sar][NMeL][hPhe(3-OMe,4-CONHMe)][NMeL][NMeL]D-Piperidide; lactam N-11) | 0.88
CCCN1CC(=O)N(C)[C@@H](Cc2cccc(Cl)c2)C(=O)N(C)[C@@H](CC(C)C)C(=O)N[C@@H](COC(C)(C)C)C(=O)N(C)[C@@H](CC(C)C)C(=O)N[C@H](C(=O)N2CCCCC2)CC(=O)N(C)CC(=O)N(C)[C@@H](Cc2ccccc2)C(=O)N[C@@H](COCC(C)(C)O)C(=O)N(C)[C@@H](CC(C)C)C(=O)N[C@@H]([C@@H](C)O)C1=O [AP07] ([Sar][NMeF]S(CH2CMe2OH)[NMeL]T[NPrGly][NMePhe(3-Cl)][NMeL]S(tBu)[NMeL]D-Piperidide; lactam N-11) | 1.3
CCCCN1CC(=O)N(C)[C@@H](Cc2ccccc2)C(=O)N[C@@H](COCC(=O)NC(C)(C)C)C(=O)N(C)[C@@H](CC(C)C)C(=O)N[C@@H]([C@@H](C)O)C(=O)N(CCC)CC(=O)N(C)[C@@H](Cc2ccccc2)C(=O)N(C)[C@@H](CC(C)C)C(=O)N[C@@H](CC(C)C)C(=O)N(C)[C@@H](C)C(=O)N[C@H](C(=O)N2CCCCC2)CC1=O [AP17] ([NBuGly][NMeF]S(CH2CONHtBu)[NMeL]T[NPrGly][NMeF][NMeL]L[NMeA]D-Piperidide; lactam N-11) | 0.72
CC(C)C[C@@H]1NC(=O)[C@H](Cc2ccccc2)N(C)C(=O)[C@@H](C(C)C)NC(=O)C[C@@H](C(=O)N2CCCCC2)NC(=O)[C@H](CC(C)C)N(C)C(=O)[C@H](Cc2cccc(Cl)c2)N(C)C(=O)[C@H](COCC[C@@H](C)O)NC(=O)[C@H](CC(C)C)N(C)C(=O)CN(C)C(=O)[C@H]([C@@H](C)O)NC(=O)[C@H](CC(C)C)N(C)C1=O [AP109] ([dV][NMeF]L[NMeL]T[Sar][NMeL]S(Butyl(3R-OH))[NMePhe(3-Cl)][NMeL]D-Piperidide; lactam N-11) | 0.64
CNC(=O)c1ccc(CC[C@H]2NC(=O)[C@H](CC(C)C)N(C)C(=O)CCCN(C)C(=O)C[C@@H](C(=O)N3CCCCC3)NC(=O)[C@H](CC(C)C)N(C)C(=O)[C@H](CC(C)C)N(C)C(=O)[C@H]([C@@H](C)O)NC(=O)[C@H](CC(C)C)N(C)C(=O)[C@H](COC(C)(C)C)NC(=O)[C@H](Cc3ccccc3)N(C)C(=O)[C@H](CC(C)C)N(C)C2=O)cc1OC [AP211] ([NMeGABA][NMeL][dhPhe(4-CONHMe,3-OMe)][NMeL][NMeF]S(tBu)[NMeL]T[NMeL][NMeL]D-Piperidide; lactam N-11) | 0.36
CC(C)C[C@@H]1NC(=O)[C@H](C)N(C)C(=O)C[C@@H](C(=O)N2CCCCC2)NC(=O)[C@H](CC(C)C)N(C)C(=O)CN(C)C(=O)[C@H]([C@@H](C)O)NC(=O)[C@H](CC(C)C)N(C)C(=O)[C@H](CCc2ccccc2)N(C)C(=O)[C@H](COCCC(C)(C)O)NC(=O)[C@H](Cc2ccccc2)N(C)C(=O)[C@H](CC(C)C)N(C)C1=O [AP56] ([NMeA]L[NMeL][NMeF]S(Butyl(3-Me,3-OH))[NMehPhe][NMeL]T[Sar][NMeL]D-Piperidide; lactam N-11) | 1.3

Same assay, conditions: human, Caco-2, Caco-2 (cm/sec) Papp

Structure (SMILES) | Papp [×10⁻⁶ cm/s]
CC(C)C[C@H]1C(=O)N(C)[C@@H](Cc2ccccc2)C(=O)N(C)[C@@H](Cc2ccccc2)C(=O)N[C@@H]([C@@H](C)O)C(=O)N(C)[C@@H](C)C(=O)N(C)[C@@H](Cc2ccccc2)C(=O)N[C@H](C(=O)N2CCCCC2)CC(=O)N(C)[C@@H](C)C(=O)N(C)[C@@H](Cc2ccccc2)C(=O)N(C)[C@@H](CC(C)C)C(=O)N[C@@H](C(C)C)C(=O)N1C [pd233] ([NMeA][NMeF][NMeL]V[NMeL][NMeF][NMeF]T[NMeA][NMeF]D-Piperidide; lactam N-11) | 0.17
CC(C)C[C@@H]1NC(=O)[C@H](Cc2ccccc2)N(C)C(=O)[C@H](C)N(C)C(=O)C[C@@H](C(=O)N2CCCCC2)NC(=O)[C@H](CC(C)C)N(C)C(=O)[C@H](Cc2ccccc2)N(C)C(=O)[C@H](Cc2ccccc2)NC(=O)[C@H](Cc2cscn2)N(C)C(=O)[C@H](C)N(C)C(=O)[C@H]([C@@H](C)O)NC(=O)[C@H](CC(C)C)N(C)C1=O [pd226] ([NMeA][NMeF]L[NMeL]T[NMeA][NMeAla(4-thiazolyl)]F[NMeF][NMeL]D-Piperidide; lactam N-11) | 0.68
